Source: PMC7614683, “A small molecule PI3Kα activator for cardioprotection and neuroregeneration” (Nature, 2023)
Where two headings read alike, the source gives them in different places.

How the values were obtained:
Assay in all cases: SelectScreen Z-LYTE kinase activity assay (SI Table 6)
Type in all cases: biochemical
[1] = biological target: protein kinases of the Z-LYTE panel (Homo sapiens, UniProt Q15303)
Outline: (§1)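 Kinases in the SelectScreen panel (Adapta, LanthaScreen binding, Z-LYTE formats) were tested against compound at 1 μM. Separately, ATM (100 nM, 5 μM GST-p53, 1 mM ATP, 30 min, 30°C) and mTORC1 (50 nM, 15 μM 4E-BP1, 250 μM ATP, 3 h) were run with 200 μM compound. Those products were read on Phos-tag gels.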

[2] = biological target: protein kinases of the Z-LYTE panel (Homo sapiens, UniProt Q16288)
Outline: as §1

[3] = biological target: protein kinases of the Z-LYTE panel (Homo sapiens, UniProt P04049, Y340D/Y341D); conditions: RAF1 (cRAF) Y340D Y341D, 1000 nM, [ATP] 100 μM
protein kinases of the Z-LYTE panel (Homo sapiens, UniProt P04049, Y340D/Y341D), sequence (P04049 whole entry Y340D/Y341D): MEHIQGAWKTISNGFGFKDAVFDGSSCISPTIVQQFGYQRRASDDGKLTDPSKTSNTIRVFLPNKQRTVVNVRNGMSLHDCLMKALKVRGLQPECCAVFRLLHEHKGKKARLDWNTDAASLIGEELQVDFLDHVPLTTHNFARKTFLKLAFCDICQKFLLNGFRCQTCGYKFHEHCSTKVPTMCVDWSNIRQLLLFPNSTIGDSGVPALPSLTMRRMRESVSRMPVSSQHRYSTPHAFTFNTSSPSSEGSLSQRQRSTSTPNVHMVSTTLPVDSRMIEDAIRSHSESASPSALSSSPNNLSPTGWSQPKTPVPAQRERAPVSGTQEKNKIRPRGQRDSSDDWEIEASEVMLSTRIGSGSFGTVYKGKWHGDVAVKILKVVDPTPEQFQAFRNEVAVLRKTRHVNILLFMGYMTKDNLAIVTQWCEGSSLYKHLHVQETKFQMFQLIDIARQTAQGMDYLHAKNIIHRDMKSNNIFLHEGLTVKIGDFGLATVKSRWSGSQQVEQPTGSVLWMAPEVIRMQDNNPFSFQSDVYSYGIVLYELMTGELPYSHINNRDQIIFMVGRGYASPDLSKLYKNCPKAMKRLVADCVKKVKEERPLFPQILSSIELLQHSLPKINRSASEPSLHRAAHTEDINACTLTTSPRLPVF
Outline: as §1

[4] = biological target: protein kinases of the Z-LYTE panel (Homo sapiens, UniProt P12931)
protein kinases of the Z-LYTE panel (Homo sapiens, UniProt P12931), sequence (P12931 whole entry): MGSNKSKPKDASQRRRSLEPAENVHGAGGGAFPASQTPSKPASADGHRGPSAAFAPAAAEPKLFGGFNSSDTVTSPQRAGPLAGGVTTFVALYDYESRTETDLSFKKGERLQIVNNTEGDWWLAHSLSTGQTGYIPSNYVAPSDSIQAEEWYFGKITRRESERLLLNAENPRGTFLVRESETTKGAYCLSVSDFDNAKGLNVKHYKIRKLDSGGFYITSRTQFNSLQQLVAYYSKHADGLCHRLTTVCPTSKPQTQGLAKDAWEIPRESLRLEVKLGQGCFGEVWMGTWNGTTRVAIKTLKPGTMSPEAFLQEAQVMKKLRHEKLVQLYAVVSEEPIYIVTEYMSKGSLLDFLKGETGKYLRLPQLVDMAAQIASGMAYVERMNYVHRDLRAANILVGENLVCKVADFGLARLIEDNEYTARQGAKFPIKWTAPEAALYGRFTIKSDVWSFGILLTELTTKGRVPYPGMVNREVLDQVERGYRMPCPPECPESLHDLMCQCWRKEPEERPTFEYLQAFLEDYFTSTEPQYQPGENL
Outline: as §1

[5] = biological target: T1, protein kinases of the Z-LYTE panel (Homo sapiens, UniProt P36888)
T1 sequence (P36888 27-993): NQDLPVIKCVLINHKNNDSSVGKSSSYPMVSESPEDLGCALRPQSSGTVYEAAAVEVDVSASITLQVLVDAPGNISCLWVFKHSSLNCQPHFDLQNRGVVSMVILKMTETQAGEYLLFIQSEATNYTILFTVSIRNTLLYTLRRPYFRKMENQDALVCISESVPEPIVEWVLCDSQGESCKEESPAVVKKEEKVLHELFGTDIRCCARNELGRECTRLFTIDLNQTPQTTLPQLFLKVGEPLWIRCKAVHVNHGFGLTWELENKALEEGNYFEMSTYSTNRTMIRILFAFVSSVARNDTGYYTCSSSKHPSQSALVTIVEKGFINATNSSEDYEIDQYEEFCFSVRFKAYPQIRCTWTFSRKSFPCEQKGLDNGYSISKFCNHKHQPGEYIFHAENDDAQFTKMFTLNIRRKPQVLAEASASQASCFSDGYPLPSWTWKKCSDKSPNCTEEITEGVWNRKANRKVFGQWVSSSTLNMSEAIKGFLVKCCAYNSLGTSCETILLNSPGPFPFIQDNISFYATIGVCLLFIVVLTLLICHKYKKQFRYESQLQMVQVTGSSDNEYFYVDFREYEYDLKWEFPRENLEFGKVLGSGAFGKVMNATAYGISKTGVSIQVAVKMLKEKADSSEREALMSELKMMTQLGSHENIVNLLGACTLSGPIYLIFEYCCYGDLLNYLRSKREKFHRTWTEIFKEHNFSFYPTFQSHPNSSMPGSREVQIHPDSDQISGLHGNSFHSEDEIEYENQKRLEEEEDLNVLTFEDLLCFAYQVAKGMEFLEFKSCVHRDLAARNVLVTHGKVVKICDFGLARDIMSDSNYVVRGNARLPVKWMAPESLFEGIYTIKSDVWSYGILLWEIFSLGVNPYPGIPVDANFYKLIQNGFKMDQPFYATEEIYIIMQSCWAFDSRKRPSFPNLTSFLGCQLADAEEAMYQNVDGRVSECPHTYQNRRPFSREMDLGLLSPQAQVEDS
Outline: as §1

[6] = biological target: protein kinases of the Z-LYTE panel (Homo sapiens, UniProt P42684)
protein kinases of the Z-LYTE panel (Homo sapiens, UniProt P42684), sequence (P42684 whole entry): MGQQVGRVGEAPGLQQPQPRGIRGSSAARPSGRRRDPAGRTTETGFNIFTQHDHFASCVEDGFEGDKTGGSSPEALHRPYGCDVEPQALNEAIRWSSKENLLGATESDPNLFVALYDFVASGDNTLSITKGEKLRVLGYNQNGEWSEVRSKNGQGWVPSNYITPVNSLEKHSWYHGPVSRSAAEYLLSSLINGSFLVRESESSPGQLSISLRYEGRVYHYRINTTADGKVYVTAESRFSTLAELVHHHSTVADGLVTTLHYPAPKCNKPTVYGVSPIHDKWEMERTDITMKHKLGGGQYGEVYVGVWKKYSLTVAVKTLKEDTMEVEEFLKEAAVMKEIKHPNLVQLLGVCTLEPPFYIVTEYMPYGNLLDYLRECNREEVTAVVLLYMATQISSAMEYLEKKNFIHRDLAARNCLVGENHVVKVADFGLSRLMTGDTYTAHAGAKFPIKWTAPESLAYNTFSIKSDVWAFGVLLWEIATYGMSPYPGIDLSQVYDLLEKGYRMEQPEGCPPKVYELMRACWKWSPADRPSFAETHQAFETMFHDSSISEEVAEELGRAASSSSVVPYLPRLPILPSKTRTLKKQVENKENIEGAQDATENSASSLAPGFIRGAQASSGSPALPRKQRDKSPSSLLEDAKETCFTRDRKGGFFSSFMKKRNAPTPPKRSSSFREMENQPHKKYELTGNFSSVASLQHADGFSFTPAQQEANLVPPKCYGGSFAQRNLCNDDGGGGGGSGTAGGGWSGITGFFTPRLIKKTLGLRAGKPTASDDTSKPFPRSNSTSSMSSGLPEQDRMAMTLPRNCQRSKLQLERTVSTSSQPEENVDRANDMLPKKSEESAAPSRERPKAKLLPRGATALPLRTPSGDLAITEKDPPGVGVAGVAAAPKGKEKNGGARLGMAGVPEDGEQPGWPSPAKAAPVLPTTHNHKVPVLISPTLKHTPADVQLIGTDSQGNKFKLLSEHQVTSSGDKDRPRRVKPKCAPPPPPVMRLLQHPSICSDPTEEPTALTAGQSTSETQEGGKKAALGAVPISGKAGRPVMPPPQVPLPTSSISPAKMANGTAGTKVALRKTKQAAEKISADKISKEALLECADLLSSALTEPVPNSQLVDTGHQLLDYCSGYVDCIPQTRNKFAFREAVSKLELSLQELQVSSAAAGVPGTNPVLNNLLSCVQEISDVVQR
Outline: as §1

[7] = biological target: protein kinases of the Z-LYTE panel (Homo sapiens, UniProt P16591)
protein kinases of the Z-LYTE panel (Homo sapiens, UniProt P16591), sequence (P16591 whole entry): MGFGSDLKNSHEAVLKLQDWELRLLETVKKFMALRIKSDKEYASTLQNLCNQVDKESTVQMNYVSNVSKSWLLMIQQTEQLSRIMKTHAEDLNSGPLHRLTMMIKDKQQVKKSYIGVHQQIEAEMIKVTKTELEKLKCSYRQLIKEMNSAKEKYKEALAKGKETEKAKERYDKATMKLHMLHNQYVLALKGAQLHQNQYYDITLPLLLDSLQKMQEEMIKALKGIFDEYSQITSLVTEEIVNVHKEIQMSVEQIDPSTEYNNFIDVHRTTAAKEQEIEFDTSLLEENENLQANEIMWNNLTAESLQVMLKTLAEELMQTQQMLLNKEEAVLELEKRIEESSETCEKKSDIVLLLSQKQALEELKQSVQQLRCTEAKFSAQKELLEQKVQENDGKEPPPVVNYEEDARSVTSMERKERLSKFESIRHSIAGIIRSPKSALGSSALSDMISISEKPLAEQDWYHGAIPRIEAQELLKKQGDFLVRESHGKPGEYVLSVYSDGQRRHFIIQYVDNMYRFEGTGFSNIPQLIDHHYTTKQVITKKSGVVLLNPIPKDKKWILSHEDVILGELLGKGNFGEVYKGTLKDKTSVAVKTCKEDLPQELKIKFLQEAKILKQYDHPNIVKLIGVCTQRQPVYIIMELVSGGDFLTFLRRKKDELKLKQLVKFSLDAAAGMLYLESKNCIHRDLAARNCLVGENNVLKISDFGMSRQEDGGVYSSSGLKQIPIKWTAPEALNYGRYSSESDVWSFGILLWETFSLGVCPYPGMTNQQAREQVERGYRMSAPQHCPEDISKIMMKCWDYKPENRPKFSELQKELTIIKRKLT
Outline: as §1

[8] = biological target: protein kinases of the Z-LYTE panel (Homo sapiens, UniProt Q9P286)
Outline: as §1

protein kinases of the Z-LYTE panel (Homo sapiens, UniProt Q15303), sequence (Q15303 26-1308): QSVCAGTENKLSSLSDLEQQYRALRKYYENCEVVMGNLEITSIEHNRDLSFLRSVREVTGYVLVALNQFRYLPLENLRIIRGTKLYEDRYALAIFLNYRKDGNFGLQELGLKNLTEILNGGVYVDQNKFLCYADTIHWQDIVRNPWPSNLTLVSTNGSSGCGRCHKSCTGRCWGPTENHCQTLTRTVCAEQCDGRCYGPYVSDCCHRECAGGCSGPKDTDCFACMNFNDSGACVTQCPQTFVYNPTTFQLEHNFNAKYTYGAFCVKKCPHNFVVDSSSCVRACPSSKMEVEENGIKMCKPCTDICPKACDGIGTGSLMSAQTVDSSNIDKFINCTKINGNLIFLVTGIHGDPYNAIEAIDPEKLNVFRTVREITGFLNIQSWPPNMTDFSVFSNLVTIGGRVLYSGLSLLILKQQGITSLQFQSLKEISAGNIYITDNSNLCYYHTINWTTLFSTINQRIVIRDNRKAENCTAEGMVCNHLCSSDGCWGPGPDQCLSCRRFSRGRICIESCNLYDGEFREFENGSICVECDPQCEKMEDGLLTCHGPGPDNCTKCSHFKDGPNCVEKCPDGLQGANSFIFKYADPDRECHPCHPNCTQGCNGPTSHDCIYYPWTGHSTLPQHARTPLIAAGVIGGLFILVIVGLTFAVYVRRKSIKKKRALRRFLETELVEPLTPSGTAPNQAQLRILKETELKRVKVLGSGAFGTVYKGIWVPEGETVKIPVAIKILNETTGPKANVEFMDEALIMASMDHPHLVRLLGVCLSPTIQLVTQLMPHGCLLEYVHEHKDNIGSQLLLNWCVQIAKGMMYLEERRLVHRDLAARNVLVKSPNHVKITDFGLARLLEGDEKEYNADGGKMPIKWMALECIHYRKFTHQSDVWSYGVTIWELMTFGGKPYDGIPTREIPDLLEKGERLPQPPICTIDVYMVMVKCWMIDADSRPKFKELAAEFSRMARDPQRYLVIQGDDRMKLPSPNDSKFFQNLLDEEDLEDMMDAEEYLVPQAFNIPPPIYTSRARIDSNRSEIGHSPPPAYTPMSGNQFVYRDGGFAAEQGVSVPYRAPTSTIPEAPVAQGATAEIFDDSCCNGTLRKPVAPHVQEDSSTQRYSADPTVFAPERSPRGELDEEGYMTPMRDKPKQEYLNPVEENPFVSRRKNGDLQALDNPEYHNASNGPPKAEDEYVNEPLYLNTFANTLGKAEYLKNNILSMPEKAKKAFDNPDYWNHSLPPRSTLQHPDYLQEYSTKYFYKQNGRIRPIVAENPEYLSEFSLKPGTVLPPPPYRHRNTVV

**Q.** `CCN1CCN(c2ccc(Nc3cc(Nc4cccc5c4N(C(C)=O)CC5)ccn3)cc2)CC1` [Compound 1938] was tested. Which inhibition at 1 µM ([1]; read-out: % Inhibition Point 1) did it give?
**A.** 9%

**Q.** And the inhibition at 1 µM ([1]; read-out: % Inhibition Point 2)?
**A.** 9.48%

**Q.** What about the inhibition at 1 µM ([1]; read-out: % Inhibition mean) of the same compound?
**A.** 9%

**Q.** What about the inhibition at 1 µM ([2]; read-out: % Inhibition Point 1) of the same compound?
**A.** 12%

**Q.** What about the inhibition at 1 µM ([2]; read-out: % Inhibition Point 2) of the same compound?
**A.** 14%

**Q.** And the inhibition at 1 µM ([2]; read-out: % Inhibition mean)?
**A.** 13%

**Q.** And the inhibition at 1 µM ([3]; read-out: % Inhibition Point 1)?
**A.** 5.53%

**Q.** And the inhibition at 1 µM ([3]; read-out: % Inhibition Point 2)?
**A.** 8%

**Q.** What about the inhibition at 1 µM ([3]; read-out: % Inhibition mean) of the same compound?
**A.** 6.59%

**Q.** What about the inhibition at 1 µM ([4]; read-out: % Inhibition Point 1) of the same compound?
**A.** 28%

**Q.** What about the inhibition at 1 µM ([4]; read-out: % Inhibition Point 2) of the same compound?
**A.** 29%

**Q.** What about the inhibition at 1 µM ([4]; read-out: % Inhibition mean) of the same compound?
**A.** 29%

**Q.** And the inhibition at 1 µM ([5]; read-out: % Inhibition Point 1)?
**A.** 19%

**Q.** What about the inhibition at 1 µM ([5]; read-out: % Inhibition Point 2) of the same compound?
**A.** 20%

**Q.** What about the inhibition at 1 µM ([5]; read-out: % Inhibition mean) of the same compound?
**A.** 19%

**Q.** What about the inhibition at 1 µM ([6]; read-out: % Inhibition Point 1) of the same compound?
**A.** 22%

**Q.** And the inhibition at 1 µM ([6]; read-out: % Inhibition Point 2)?
**A.** 20%

**Q.** What about the inhibition at 1 µM ([6]; read-out: % Inhibition mean) of the same compound?
**A.** 21%

**Q.** And the inhibition at 1 µM ([7]; read-out: % Inhibition Point 1)?
**A.** -5.31%

**Q.** And the inhibition at 1 µM ([7]; read-out: % Inhibition Point 2)?
**A.** -2.44%

**Q.** What about the inhibition at 1 µM ([7]; read-out: % Inhibition mean) of the same compound?
**A.** -4%

**Q.** And the inhibition at 1 µM ([8]; read-out: % Inhibition Point 1)?
**A.** 0.526%

**Q.** And the inhibition at 1 µM ([8]; read-out: % Inhibition Point 2)?
**A.** 3.33%

**Q.** What about the inhibition at 1 µM ([8]; read-out: % Inhibition mean) of the same compound?
**A.** 2%
